According to PubChem BioAssay (NCI):
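In this assay, cells in 96-well plates receive the compound at five concentrations for 48 hours. Endpoints are linearly interpolated between the surrounding concentrations. The concentration for full growth arrest is given as TGI.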

What was measured:
Test in all cases: inhibition of tumour cell growth, NCI panel, 48 h
786-0 renal = system: 786-0 renal
A498 renal = system: A498 renal
A549 NSCLC = system: A549 NSCLC
ACHN renal = system: ACHN renal
BT-549 breast = system: BT-549 breast
CAKI-1 renal = system: CAKI-1 renal
CCRF-CEM leukemia = system: CCRF-CEM leukemia
COLO 205 colon = system: COLO 205 colon
DU-145 prostate = system: DU-145 prostate
EKVX NSCLC = system: EKVX NSCLC
HCC-2998 colon = system: HCC-2998 colon
HCT-116 colon = system: HCT-116 colon
HCT-15 colon = system: HCT-15 colon
HL-60(TB) leukemia = system: HL-60(TB) leukemia
HOP-62 NSCLC = system: HOP-62 NSCLC
HOP-92 NSCLC = system: HOP-92 NSCLC
HS 578T breast = system: HS 578T breast
HT29 colon = system: HT29 colon
IGROV1 ovarian = system: IGROV1 ovarian
K-562 leukemia = system: K-562 leukemia
KM12 colon = system: KM12 colon
LOX IMVI melanoma = system: LOX IMVI melanoma
M14 melanoma = system: M14 melanoma
MALME-3M melanoma = system: MALME-3M melanoma
MCF7 breast = system: MCF7 breast
MDA-MB-231 breast = system: MDA-MB-231 breast
MDA-MB-435 = system: MDA-MB-435
MDA-N = system: MDA-N
MOLT-4 leukemia = system: MOLT-4 leukemia
NCI-H226 lung = system: NCI-H226 lung
NCI-H23 lung = system: NCI-H23 lung
NCI-H460 lung = system: NCI-H460 lung
NCI-H522 lung = system: NCI-H522 lung
NCI/ADR-RES ovarian = system: NCI/ADR-RES ovarian
OVCAR-3 ovarian = system: OVCAR-3 ovarian
OVCAR-4 ovarian = system: OVCAR-4 ovarian
OVCAR-5 ovarian = system: OVCAR-5 ovarian
OVCAR-8 ovarian = system: OVCAR-8 ovarian
PC-3 prostate = system: PC-3 prostate
RPMI-8226 leukemia = system: RPMI-8226 leukemia
RXF 393 renal = system: RXF 393 renal
SF-268 CNS = system: SF-268 CNS
SF-295 CNS = system: SF-295 CNS
SK-MEL-2 melanoma = system: SK-MEL-2 melanoma
SK-MEL-28 melanoma = system: SK-MEL-28 melanoma
SK-MEL-5 melanoma = system: SK-MEL-5 melanoma
SK-OV-3 ovarian = system: SK-OV-3 ovarian
SN12C renal = system: SN12C renal
SNB-19 CNS = system: SNB-19 CNS
SNB-75 CNS = system: SNB-75 CNS
SW-620 colon = system: SW-620 colon
T-47D breast = system: T-47D breast
TK-10 renal = system: TK-10 renal
U251 CNS = system: U251 CNS
UACC-257 melanoma = system: UACC-257 melanoma
UACC-62 melanoma = system: UACC-62 melanoma
UO-31 renal = system: UO-31 renal

Measured: TGI

O=C(O)CCC(=O)Nc1ccc2ccccc2c1
> 100 µM: all assays above
